Data as given in the NIST ThermoML archive (doi:10.1016/j.jct.2016.10.023).
Numbers after ± are expanded uncertainties.

Experiment: xn = mol fraction of the nth substance listed
Conditions: Constant-volume piezometry

CCCCC [pentane] + CCCO
Conditions | mass density [kg/m3]
533.15 K, 7168 kPa, Fluid (supercritical or subcritical phases), x1 = 0.8 | 234.59 ± 1.2
533.15 K, 7364 kPa, Fluid (supercritical or subcritical phases), x1 = 0.8 | 245.22 ± 1.2
533.15 K, 7629 kPa, Fluid (supercritical or subcritical phases), x1 = 0.2 | 378.44 ± 1.9
533.15 K, 7638 kPa, Fluid (supercritical or subcritical phases), x1 = 0.8 | 258.44 ± 1.3
533.15 K, 7786 kPa, Fluid (supercritical or subcritical phases), x1 = 0.2 | 383.24 ± 1.9
533.15 K, 7963 kPa, Fluid (supercritical or subcritical phases), x1 = 0.8 | 272.4 ± 1.4
533.15 K, 8071 kPa, Fluid (supercritical or subcritical phases), x1 = 0.9 | 281.87 ± 1.4
533.15 K, 8098 kPa, Fluid (supercritical or subcritical phases), x1 = 0.2 | 391.08 ± 2
533.15 K, 8423 kPa, Fluid (supercritical or subcritical phases), x1 = 0.8 | 288.24 ± 1.4
533.15 K, 8569 kPa, Fluid (supercritical or subcritical phases), x1 = 0.9 | 301.54 ± 1.5
533.15 K, 8748 kPa, Fluid (supercritical or subcritical phases), x1 = 0.8 | 299.05 ± 1.5
533.15 K, 9002 kPa, Fluid (supercritical or subcritical phases), x1 = 0.9 | 312.17 ± 1.6
533.15 K, 9374 kPa, Fluid (supercritical or subcritical phases), x1 = 0.2 | 418.49 ± 2.1
533.15 K, 9413 kPa, Fluid (supercritical or subcritical phases), x1 = 0.8 | 315.21 ± 1.6
533.15 K, 10061 kPa, Fluid (supercritical or subcritical phases), x1 = 0.9 | 333.87 ± 1.7
533.15 K, 10217 kPa, Fluid (supercritical or subcritical phases), x1 = 0.8 | 333.69 ± 1.7
533.15 K, 10835 kPa, Fluid (supercritical or subcritical phases), x1 = 0.8 | 345.21 ± 1.7
533.15 K, 11530 kPa, Fluid (supercritical or subcritical phases), x1 = 0.9 | 353.95 ± 1.8
533.15 K, 12119 kPa, Fluid (supercritical or subcritical phases), x1 = 0.8 | 361.76 ± 1.8
533.15 K, 13530 kPa, Fluid (supercritical or subcritical phases), x1 = 0.2 | 470.12 ± 2.4
533.15 K, 17294 kPa, Fluid (supercritical or subcritical phases), x1 = 0.9 | 407.1 ± 2
533.15 K, 18236 kPa, Fluid (supercritical or subcritical phases), x1 = 0.8 | 418.01 ± 2.1
533.15 K, 19667 kPa, Fluid (supercritical or subcritical phases), x1 = 0.2 | 509.31 ± 2.6
533.15 K, 29155 kPa, Fluid (supercritical or subcritical phases), x1 = 0.8 | 466.47 ± 2.4
533.15 K, 29696 kPa, Fluid (supercritical or subcritical phases), x1 = 0.2 | 546.72 ± 2.8
533.15 K, 39686 kPa, Fluid (supercritical or subcritical phases), x1 = 0.8 | 495.86 ± 2.5
533.15 K, 44516 kPa, Fluid (supercritical or subcritical phases), x1 = 0.2 | 580.98 ± 2.9
543.15 K, 1370 kPa, Gas, x1 = 0.8 | 22.5 ± 0.07
543.15 K, 1634 kPa, Gas, x1 = 0.2 | 24.9 ± 0.08
543.15 K, 2088 kPa, Gas, x1 = 0.8 | 36.65 ± 0.11
543.15 K, 3070 kPa, Gas, x1 = 0.8 | 58.36 ± 0.18
543.15 K, 3378 kPa, Gas, x1 = 0.2 | 52.95 ± 0.16
543.15 K, 3671 kPa, Gas, x1 = 0.8 | 73.72 ± 0.23
543.15 K, 3909 kPa, Fluid (supercritical or subcritical phases), x1 = 0.9 | 83.3 ± 0.42
543.15 K, 4468 kPa, Gas, x1 = 0.2 | 91.32 ± 0.29
543.15 K, 4745 kPa, Fluid (supercritical or subcritical phases), x1 = 0.8 | 106.3 ± 0.54
543.15 K, 5031 kPa, Fluid (supercritical or subcritical phases), x1 = 0.2 | 114.24 ± 0.59
543.15 K, 5063 kPa, Fluid (supercritical or subcritical phases), x1 = 0.9 | 123.23 ± 0.63
543.15 K, 5339 kPa, Fluid (supercritical or subcritical phases), x1 = 0.9 | 133.99 ± 0.68
543.15 K, 5679 kPa, Fluid (supercritical or subcritical phases), x1 = 0.2 | 150.2 ± 0.77
543.15 K, 5755 kPa, Fluid (supercritical or subcritical phases), x1 = 0.8 | 140.17 ± 0.71
543.15 K, 6004 kPa, Fluid (supercritical or subcritical phases), x1 = 0.9 | 163.8 ± 0.83
543.15 K, 6026 kPa, Fluid (supercritical or subcritical phases), x1 = 0.2 | 175.44 ± 0.92
543.15 K, 6054 kPa, Fluid (supercritical or subcritical phases), x1 = 0.8 | 155.89 ± 0.8
543.15 K, 6187 kPa, Fluid (supercritical or subcritical phases), x1 = 0.2 | 189.45 ± 0.98
543.15 K, 6358 kPa, Fluid (supercritical or subcritical phases), x1 = 0.8 | 169.62 ± 0.87
543.15 K, 6471 kPa, Fluid (supercritical or subcritical phases), x1 = 0.2 | 219.88 ± 1.1
543.15 K, 6471 kPa, Fluid (supercritical or subcritical phases), x1 = 0.8 | 175.86 ± 0.89
543.15 K, 6570 kPa, Fluid (supercritical or subcritical phases), x1 = 0.9 | 189.27 ± 0.96
543.15 K, 6584 kPa, Fluid (supercritical or subcritical phases), x1 = 0.8 | 180.65 ± 0.92
543.15 K, 6716 kPa, Fluid (supercritical or subcritical phases), x1 = 0.2 | 245.23 ± 1.3
543.15 K, 6834 kPa, Fluid (supercritical or subcritical phases), x1 = 0.2 | 258.94 ± 1.3
543.15 K, 6836 kPa, Fluid (supercritical or subcritical phases), x1 = 0.8 | 192.97 ± 0.98
543.15 K, 6846 kPa, Fluid (supercritical or subcritical phases), x1 = 0.9 | 202.18 ± 1
543.15 K, 6875 kPa, Fluid (supercritical or subcritical phases), x1 = 0.2 | 262.64 ± 1.4
543.15 K, 6963 kPa, Fluid (supercritical or subcritical phases), x1 = 0.2 | 272.09 ± 1.4
543.15 K, 7154 kPa, Fluid (supercritical or subcritical phases), x1 = 0.2 | 290.25 ± 1.5
543.15 K, 7246 kPa, Fluid (supercritical or subcritical phases), x1 = 0.9 | 220.47 ± 1.1
543.15 K, 7269 kPa, Fluid (supercritical or subcritical phases), x1 = 0.8 | 213.64 ± 1.1
543.15 K, 7363 kPa, Fluid (supercritical or subcritical phases), x1 = 0.2 | 306.52 ± 1.6
543.15 K, 7405 kPa, Fluid (supercritical or subcritical phases), x1 = 0.8 | 219.4 ± 1.1
543.15 K, 7419 kPa, Fluid (supercritical or subcritical phases), x1 = 0.2 | 310.74 ± 1.6
543.15 K, 7511 kPa, Fluid (supercritical or subcritical phases), x1 = 0.2 | 318.45 ± 1.6
543.15 K, 7520 kPa, Fluid (supercritical or subcritical phases), x1 = 0.9 | 232.83 ± 1.2
543.15 K, 7591 kPa, Fluid (supercritical or subcritical phases), x1 = 0.9 | 236.29 ± 1.2
543.15 K, 7689 kPa, Fluid (supercritical or subcritical phases), x1 = 0.9 | 240.69 ± 1.2
543.15 K, 7747 kPa, Fluid (supercritical or subcritical phases), x1 = 0.8 | 234.47 ± 1.2
543.15 K, 7760 kPa, Fluid (supercritical or subcritical phases), x1 = 0.9 | 244 ± 1.2
543.15 K, 7964 kPa, Fluid (supercritical or subcritical phases), x1 = 0.2 | 340.91 ± 1.7
543.15 K, 7983 kPa, Fluid (supercritical or subcritical phases), x1 = 0.8 | 245.1 ± 1.2
543.15 K, 8042 kPa, Fluid (supercritical or subcritical phases), x1 = 0.2 | 343.7 ± 1.7
543.15 K, 8294 kPa, Fluid (supercritical or subcritical phases), x1 = 0.8 | 258.31 ± 1.3
543.15 K, 8708 kPa, Fluid (supercritical or subcritical phases), x1 = 0.8 | 272.26 ± 1.4
543.15 K, 8845 kPa, Fluid (supercritical or subcritical phases), x1 = 0.9 | 281.73 ± 1.4
